Results reported in US20090325913A1, “Treatment of pain using satraplatin” (priority 2006, published 2009).

Key:
[1] = system: prostate cancer cell lines PC-3, DU 145 and LNCaP; details: cited from earlier work
[2] = system: patients with metastatic prostatic carcinoma; details: single agent; cited from earlier work
[3] = system: CYP enzymes (cytochrome P450 system); assay: Inhibition of CYP enzymes; assay type: in vitro ADME
Source text: This may result in increased toxicity of certain drugs (see Appendix 5). Patients will be monitored closely for drug interactions or adverse reactions to concomitant medications. Investigators are cautioned to adjust concomitant medication dosages appropriately.

[4] = system: mismatch repair-proficient and mismatch repair-deficient cell lines; details: cited from earlier work
[5] = system: human tumor cell lines with different sensitivities to cisplatin; details: at equimolar basis; cited from earlier work
[6] = system: human lung cancer cells; details: cited from earlier work

| SMILES | effect of treatment on prostate cancer cells [1] | efficacy [2] | inhibition of CYP enzymes [3] | sensitivity of androgen-insensitive PC-3 and DU 145 vs androgen-sensitive LNCaP [1] | difference in sensitivity between mismatch repair-proficient and -deficient cell lines [4] | levels of platinum-DNA adducts compared to cisplatin [5] | effect on radiation response [6] |
| --- | --- | --- | --- | --- | --- | --- | --- |
| N.NC1CCCCC1.[Cl-].[Cl-].[Pt+2] [JM118, reference compound] | tumor cell kill | – | – | – | – | – | – |
| N.N.[Cl][Pt][Cl] [cisplatin] | – | not effective | – | – | – | – | – |
| CC(=O)[O][Pt]([NH2])([Cl])([Cl])([NH]C1CCCCC1)[O]C(C)=O [satraplatin, bis(acetato)ammine dichloro(cyclohexylamine)platinum (IV)] | tumor cell kill | – | strong inhibitor | more sensitive | no difference in sensitivity | lower levels of platinum-DNA adducts | can potentiate the effects of radiation |
